These results are taken from patent US10620215B2, “Real-time imaging sensor for measuring cellular thiol level” (CELL2IN, INC., priority 2014, dated 2020).

A short description of experiment [1]: Chemical equilibrium constant (Kd) of the tracer with β-mercaptoethanol, from fluorescence emission after equilibration. It is filed as binding. The protocol:
(§1) A buffer (10 mM phosphate, 150 mM NaCl, pH 7.4, H2O:DMSO=98:2) containing a mixture of a thiol compound (0-200 mM) and a FreSH-tracer (10 μM) was prepared, and the time-dependent UV-Vis absorption spectrum and fluorescence emission spectrum of the buffer were measured with S-3100 spectrophotometer and Hitachi F-7000 spectrophotometer. For preparation of buffers for use in in vitro experiments at pHs of pH 4, 5, 9 and 10, acetate and CHES (2-(cyclohexylamino)ethanesulfonate) were used instead of phosphate.
(§2) After a chemical equilibrium between the thiol compound (0-200 mM) and the FreSH-tracer was formed by an in vitro reaction, the emission spectrum of fluorescence emitted upon excitation with light at a wavelength of 430 nm was measured. The relationship between the fluorescence intensity at the maximum emission wavelength (580 nm) and the concentration of the thiol compound was analyzed by non-linear regression to determine the chemical equilibrium constant (Kd) between the thiol compound and the FreSH-tracer.

For a further experiment, the system named is RAW264.7. The experiment can be described thus: Level of thiols in RAW264.7 macrophages after NADPH oxidase activation, by FreSH-tracer F510/F580 ratio. Type of experiment: cell-based. As to conditions: PMA treatment for 10-20 minutes; returned to basal level after 40-50 minutes. The protocol:
(§3) HeLa and RAW264.7 cells were cultured in DMEM (containing 10% heat-inactivated FBS (Hyclone), 100 U/ml of penicillin, 100 μg/ml of streptomycin sulfate and 2 mM glutamine and free of phenol red). HeLa (1.8×10^5 cells/dish) and RAW264.7 (2×10^5 cells/dish) were seeded in 35 mm cover glass bottom dishes (SPL Life Sciences), and then cultured under the conditions of 37° C. and 5% CO2 for the indicated time. Before observation using a fluorescence microscope, the HeLa cells were incubated with 2 mL of a medium containing 5 μM of the FreSH-tracer HeLa for 2 hours, and the RAW264.7 cells were incubated for 4 hours. Real-time images of the cells were acquired using a Nikon A1 laser scanning confocal microscope. The imaging test was 2 performed while the cells were incubated under the conditions of 37° C. and 5% CO2 in a chamber mounted in a Nikon ECLIPSE Ti inverted microscope equipped with CFI Plan apochromat 60× and 1.40 numerical aperture (NA) objective lenses. The FreSH-tracer was excited with laser beams at 403 nm and 488 nm, and the fluorescence of the tracer was detected through filters with 500-550 nm and 570-620 nm band intervals. Using NIS-Elements AR software, the experimental data were analyzed and the ratio of fluorescence was imaged.
ROS that are generated by phagocytic NADPH oxidase (Phox) activity are essential defense substances that kill invasive microorganisms. […]

The nature of experiment [2]: Chemical equilibrium constant (Kd) and fluorescence ratio response of the tracer with glutathione (GSH) in vitro. It is filed as binding. As to conditions: equilibration with GSH. The protocol:
as §1, §2

The subject of the next experiment is HeLa cells. The experiment can be described thus: Level of thiols / reduced GSH in living HeLa cells, by FreSH-tracer fluorescence intensity ratio. It is filed as cell-based. As to conditions: treatment with GSH-related enzyme inhibitor. The protocol:
as §3, with “imaged. […]” for “imaged.”

With `CN(C)C(=O)C(C#N)=Cc1cc2cc3c4c(c2oc1=O)CCCN4CCC3` [formula 2], the affinity in experiment [1], expressed as Kd, was 12 ± 1 mM.

As to `CCCCCCCCCCCCCC(=O)O[C@@H]1[C@@H](C)[C@@]2(O)[C@@H](C=C(CO)C[C@]3(O)C(=O)C(C)=C[C@@H]23)[C@@H]2C(C)(C)[C@]12OC(C)=O` [PMA, phorbol 12-myristate 13-acetate], the “level of thiols in the cells” value with RAW264.7 is listed as “reduced”.

`CCN(CC)c1ccc2cc(C=C(C#N)C(=O)N(C)C)c(=O)oc2c1` [formula 8] showed a Kd in experiment [1] of 2.2 ± 0.1 mM.

Turning to `CC(=O)OCOC(=O)C1CCN(C(=O)C(C#N)=Cc2cc3cc4c5c(c3oc2=O)CCCN5CCC4)CC1` [formula 4], in experiment [2], the Kd turned out to be 2.8 ± 0.4 mM.

Regarding `CC(=O)OCOC(=O)CC[C@H](NC(=O)C1CCN(C(=O)C(C#N)=Cc2cc3cc4c5c(c3oc2=O)CCCN5CCC4)CC1)C(=O)OCOC(C)=O` [formula 7], in experiment [2], the Kd is 3.7 ± 0.2 mM.

In the case of `CCOC(=O)CNC(=O)C(C#N)=Cc1cc2cc3c4c(c2oc1=O)CCCN4CCC3` [formula 3], the equilibrium dissociation constant (Kd) in experiment [1] amounted to 14 ± 1 mM.

`CCCCS(=N)(=O)CCC(N)C(=O)O` (centres unmarked) [BSO, buthionine sulphoximine]: the “fluorescence intensity ratio of the sensor (level of reduced GSH) in HeLa cells” value in the experiment with HeLa cells is on record as “reduced”.

In turn, `N#CC(=Cc1cc2cc3c4c(c2oc1=O)CCCN4CCC3)C(=O)N1CCC(C(=O)NCC[P+](c2ccccc2)(c2ccccc2)c2ccccc2)CC1` [formula 5] gave a Kd in experiment [1] of 2.2 ± 0.1 mM.
